Test results as given in paper PMC11995724, “Antibiotic target discovery by integrated phenotypic and activity-based profiling of electrophilic fragments” (Cell chemical biology, 2025).

Assay: in vitro
Details: human, hek293t cells

| Compound | viability at 48 h, 25 µM [%] |
| --- | --- |
| C=CC(=O)Nc1cc(C(C)C)ccc1C(C)C [1-I21, N-[2,5-bis(propan-2-yl)phenyl]prop-2-enamide] | 101 |
| C=CC(=O)Nc1ccc(F)c(C(=O)CC)c1 [1-I22, N-(4-fluoro-3-propanoylphenyl)prop-2-enamide] | 101 |
| C=CC(=O)NCc1ccccc1S(=O)(=O)NC(C)(C)C [1-J03, N-{[2-(tert-butylsulfamoyl)phenyl]methyl}prop-2-enamide] | 160 |
| C=CC(=O)NCC(C)(C)Cn1cccn1 [1-J04, N-[2,2-dimethyl-3-(1H-pyrazol-1-yl)propyl]prop-2-enamide] | 69.4 |
| C=CC(=O)N1CCCC1Cn1c(C)nc2ccccc21 (stereo not drawn) [1-J05, 1-{2-[(2-methyl-1H-1,3-benzodiazol-1-yl)methyl]pyrrolidin-1-yl}prop-2-en-1-one] | 149 |
| C=CC(=O)NC1CCSC(C)C1 (stereo not drawn) [1-J06, N-(2-methylthian-4-yl)prop-2-enamide] | 78.4 |
| C=CC(=O)N1CCN(S(=O)(=O)Cc2ccon2)CC1 [1-J07, 1-{4-[(1,2-oxazol-3-yl)methanesulfonyl]piperazin-1-yl}prop-2-en-1-one] | 112 |
| C=CC(=O)Nc1cccc(-c2nc(COC)no2)c1C [1-J08, N-{3-[3-(methoxymethyl)-1,2,4-oxadiazol-5-yl]-2-methylphenyl}prop-2-enamide] | 79 |
| C=CC(=O)N(Cc1c(C)cc(Cl)cc1C)CC1COCCO1 (stereo not drawn) [1-J09, N-[(4-chloro-2,6-dimethylphenyl)methyl]-N-[(1,4-dioxan-2-yl)methyl]prop-2-enamide] | 81.4 |
| C=CC(=O)NCc1cnc(CC(C)C)s1 [1-J10, N-{[2-(2-methylpropyl)-1,3-thiazol-5-yl]methyl}prop-2-enamide] | 84.2 |
| C=CC(=O)N(Cc1cn(C)cn1)[C@H]1CCCc2ccc(C)cc21 [1-J11, N-[(1S)-7-methyl-1,2,3,4-tetrahydronaphthalen-1-yl]-N-[(1-methyl-1H-imidazol-4-yl)methyl]prop-2-enamide] | 88.8 |
| C=CC(=O)Nc1nc(C)c(CC(C)C)s1 [1-J12, N-[4-methyl-5-(2-methylpropyl)-1,3-thiazol-2-yl]prop-2-enamide] | 0.934 |
| C=CC(=O)Nc1cc(OC)ccc1C(=O)N(C)OC [1-J14, N,4-dimethoxy-N-methyl-2-(prop-2-enamido)benzamide] | 74.9 |
| C=CC(=O)N(Cc1cc(-c2ccco2)n(C)n1)C1CCCCC1 [1-J15, N-cyclohexyl-N-{[5-(furan-2-yl)-1-methyl-1H-pyrazol-3-yl]methyl}prop-2-enamide] | 83.8 |
| C=CC(=O)Nc1ncc(C2CCCC(C)C2)s1 (stereo not drawn) [1-J16, N-[5-(3-methylcyclohexyl)-1,3-thiazol-2-yl]prop-2-enamide] | 0.801 |
| C=CC(=O)NCc1cn([C@@H]2COC[C@H]2OC)nn1 [1-J17, N-({1-[(3R,4S)-4-methoxyoxolan-3-yl]-1H-1,2,3-triazol-4-yl}methyl)prop-2-enamide] | 96.5 |
| C=CC(=O)N1CCCC(S(C)(=O)=O)C1 (stereo not drawn) [1-J18, 1-(3-methanesulfonylpiperidin-1-yl)prop-2-en-1-one] | 63.9 |
| C=CC(=O)NCc1ccccc1-n1ccc(C)n1 [1-J19, N-{[2-(3-methyl-1H-pyrazol-1-yl)phenyl]methyl}prop-2-enamide] | 126 |
| C=CC(=O)N1CCN(c2nc(CC)ns2)CC1 [1-J20, 1-[4-(3-ethyl-1,2,4-thiadiazol-5-yl)piperazin-1-yl]prop-2-en-1-one] | 46.2 |
| C=CC(=O)Nc1nc2c(s1)-c1cc(OC)ccc1CC2 [1-J21, N-{8-methoxy-4H,5H-naphtho[2,1-d][1,3]thiazol-2-yl}prop-2-enamide] | 118 |
| C=CC(=O)Nc1sc2c(c1C(=O)c1ccc(C)cc1)CCOC2 [1-J22, N-[3-(4-methylbenzoyl)-4H,5H,7H-thieno[2,3-c]pyran-2-yl]prop-2-enamide] | 0.993 |
| C=CC(=O)NCc1nc(C(=O)O)c(C)s1 [1-K03, 5-methyl-2-[(prop-2-enamido)methyl]-1,3-thiazole-4-carboxylic acid] | 80.8 |
| C=CC(=O)Nc1cccc(N2CCOCC2)c1 [1-K04, N-[3-(morpholin-4-yl)phenyl]prop-2-enamide] | 74.1 |
| C=CC(=O)N1CCN(c2nc3ccccc3o2)CC1 [1-K05, 1-[4-(1,3-benzoxazol-2-yl)piperazin-1-yl]prop-2-en-1-one] | 75.6 |
| C=CC(=O)N[C@@H](C)c1ccccc1OC [1-K06, N-[(1S)-1-(2-methoxyphenyl)ethyl]prop-2-enamide] | 84.3 |
| C=CC(=O)NCC1CSCCS1 (stereo not drawn) [1-K07, N-[(1,4-dithian-2-yl)methyl]prop-2-enamide] | 78.1 |
| C=CC(=O)NCc1ccsc1-n1cccc1 [1-K08, N-{[2-(1H-pyrrol-1-yl)thiophen-3-yl]methyl}prop-2-enamide] | 153 |

| Compound | viability at 48 h, 25 µM [%] |
| --- | --- |
| C=CC(=O)N1CCn2cccc2C12COC2 [1-K09, 1-{3',4'-dihydro-2'H-spiro[oxetane-3,1'-pyrrolo[1,2-a]pyrazin]-2'-yl}prop-2-en-1-one] | 80.6 |
| C=CC(=O)NCc1ccc(OC)cc1 [1-K10, N-[(4-methoxyphenyl)methyl]prop-2-enamide] | 92 |
| C=CC(=O)Nc1cc(S(=O)(=O)N(C)C)cc(C)c1C [1-K11, N-[5-(dimethylsulfamoyl)-2,3-dimethylphenyl]prop-2-enamide] | 71.3 |
| C=CC(=O)NC1CCCN(Cc2ccccc2)C1 (stereo not drawn) [1-K12, N-(1-benzylpiperidin-3-yl)prop-2-enamide] | 82.8 |
| C=CC(=O)N1CCC(NC(=O)Nc2ccccc2OC)CC1 [1-K13, 3-(2-methoxyphenyl)-1-[1-(prop-2-enoyl)piperidin-4-yl]urea] | 106 |
| C=CC(=O)Nc1cccc(-c2cn(C)nn2)c1 [1-K14, N-[3-(1-methyl-1H-1,2,3-triazol-4-yl)phenyl]prop-2-enamide] | 82.8 |
| C=CC(=O)Nc1ccc(C(=O)Nc2ccc(N3CCOCC3)nc2)cc1 [1-K15, N-[6-(morpholin-4-yl)pyridin-3-yl]-4-(prop-2-enamido)benzamide] | 1.79 |
| C=CC(=O)Nc1ccc(-c2noc(C)n2)cc1 [1-K16, N-[4-(5-methyl-1,2,4-oxadiazol-3-yl)phenyl]prop-2-enamide] | 60.2 |
| C=CC(=O)NC12CC3(C)CC(C)(CC(O)(C3)C1)C2 [1-K17, N-(3-hydroxy-5,7-dimethyladamantan-1-yl)prop-2-enamide] | 85.3 |
| C=CC(=O)NC1CCN(S(N)(=O)=O)CC1 [1-K18, N-(1-sulfamoylpiperidin-4-yl)prop-2-enamide] | 93.7 |
| C=CC(=O)Nc1cc(-c2ccco2)nn1C(C)(C)C [1-K19, N-[1-tert-butyl-3-(furan-2-yl)-1H-pyrazol-5-yl]prop-2-enamide] | 118 |
| C=CC(=O)N1CC(c2cc(CO)on2)C1 [1-K20, 1-{3-[5-(hydroxymethyl)-1,2-oxazol-3-yl]azetidin-1-yl}prop-2-en-1-one] | 103 |
| C=CC(=O)NCC(CC)n1nc(C)cc1C (stereo not drawn) [1-K21, N-[2-(3,5-dimethyl-1H-pyrazol-1-yl)butyl]prop-2-enamide] | 108 |
| C=CC(=O)N1CCC(n2ncc3ccccc32)CC1 [1-K22, 1-[4-(1H-indazol-1-yl)piperidin-1-yl]prop-2-en-1-one] | 94.9 |
| C=CC(=O)NC1CCN(c2nc(C3CC3)cc(C(F)(F)F)n2)CC1 [1-L03, N-{1-[4-cyclopropyl-6-(trifluoromethyl)pyrimidin-2-yl]piperidin-4-yl}prop-2-enamide] | 108 |
| C=CC(=O)N1CCC(C(=O)NC(C)(C)c2ccc(F)c(F)c2)CC1 [1-L04, N-[2-(3,4-difluorophenyl)propan-2-yl]-1-(prop-2-enoyl)piperidine-4-carboxamide] | 91.1 |
| C=CC(=O)NCc1cc(Cl)c2c(c1)OCCO2 [1-L05, N-[(8-chloro-2,3-dihydro-1,4-benzodioxin-6-yl)methyl]prop-2-enamide] | 112 |
| C=CC(=O)NCCc1cnc2c(Cl)cnn2c1 [1-L06, N-(2-{3-chloropyrazolo[1,5-a]pyrimidin-6-yl}ethyl)prop-2-enamide] | 74.5 |
| C=CC(=O)N1CCC(OC2CCCC2)CC1 [1-L07, 1-[4-(cyclopentyloxy)piperidin-1-yl]prop-2-en-1-one] | 96.8 |
| C=CC(=O)N1CCOC2(CCCCCC2)C1 [1-L08, 1-{1-oxa-4-azaspiro[5.6]dodecan-4-yl}prop-2-en-1-one] | 73.9 |
| C=CC(=O)N(Cc1ccc2c(c1)CCC2)Cc1c(C)noc1C [1-L09, N-[(2,3-dihydro-1H-inden-5-yl)methyl]-N-[(3,5-dimethyl-1,2-oxazol-4-yl)methyl]prop-2-enamide] | 92.1 |
| C=CC(=O)NCc1cc(C2CC2)nn1C [1-L10, N-[(3-cyclopropyl-1-methyl-1H-pyrazol-5-yl)methyl]prop-2-enamide] | 92.5 |
| C=CC(=O)NCC(=O)Nc1ccc2c[nH]nc2c1 [1-L11, N-{[(2H-indazol-6-yl)carbamoyl]methyl}prop-2-enamide] | 89.7 |
| C=CC(=O)N1CCOCC1c1ncnn1Cc1ccccc1 (stereo not drawn) [1-L12, 1-[3-(1-benzyl-1H-1,2,4-triazol-5-yl)morpholin-4-yl]prop-2-en-1-one] | 63.7 |
| C=CC(=O)N(Cc1cc(F)c(F)c(F)c1)C(C)C1CCCO1 (stereo not drawn) [1-L13, N-[1-(oxolan-2-yl)ethyl]-N-[(3,4,5-trifluorophenyl)methyl]prop-2-enamide] | 176 |
| C=CC(=O)N1CC(C)(C)c2cc(Cl)ccc21 [1-L14, 1-(5-chloro-3,3-dimethyl-2,3-dihydro-1H-indol-1-yl)prop-2-en-1-one] | 1.22 |
| C=CC(=O)N(Cc1cccs1)C1CCc2cnn(C(C)C)c2C1 (stereo not drawn) [1-L15, N-[1-(propan-2-yl)-4,5,6,7-tetrahydro-1H-indazol-6-yl]-N-[(thiophen-2-yl)methyl]prop-2-enamide] | 82.3 |
